Assay results: US5631247A, “Compounds and compositions with nitrogen-containing non-basic side chains” (Eli Lilly and Company, priority 1996, dated 1997)
Where “and” joins values, the source holds several entries; their conditions need not be identical. Equal entries are not always repeated.

Experiments:
eosinophil peroxidase = assay: Uterine eosinophil peroxidase (EPO) assay in ovariectomized rats (four day dosing); assay type: in vivo, female Sprague Dawley rats; set-up: Uterine EPO (Vmax): unit not given here; conditions: oral, daily for 4 days, OVX rats
Experimental: (§1) In the examples illustrating the methods, a post-menopausal model was used in which effects of different treatments upon various biological parameters were determined, including serum cholesterol concentration, uterine weight, eosinophil peroxidase activity, MCF-7 cell proliferation, and bone density.
(§2) Animals were dosed daily for 4 days. […] A blood sample was collected by cardiac puncture.
(§3) The data presented in Table 1 reflect the response of 5 to 6 rats per treatment.

uterus = assay: Wet uterine weight in ovariectomized rats (four day dosing); assay type: in vivo, female Sprague Dawley rats; conditions: Rattus norvegicus, po, 96 h, daily for 4 days, increase vs OVX control, read-out: Uterine Weight (% inc. OVX)
Experimental: as §1, §2
(§4) Data presented in Table 1 below show comparative results among control ovariectomized rats, rats treated with EE2, and rats treated with certain compounds of the present invention. […] This uterine response to estrogen is well recognized in the art.
as §3

[1] = system: MCF-7 breast adenocarcinoma cells; assay: MCF-7 proliferation assay (tritiated thymidine); assay type: cell-based; conditions: Homo sapiens, MCF7, 48 hours with drug, read-out: ED50 (the source's name)
Experimental: MCF-7 breast adenocarcinoma cells (ATCC HTB 22) were maintained in MEM (minimal essential medium, phenol red-free, Sigma, St. Louis, Mo.) supplemented with 10% fetal bovine serum (FBS) (V/V), L-glutamine (2 mM), sodium pyruvate (1 mM), HEPES {(N-[2-hydroxyethyl]piperazine-N'-[2-ethanesulfonic acid]10 mM}, non-essential amino acids and bovine insulin (1 μg/ml) (maintenance medium). Ten days prior to assay, MCF-7 cells were switched to maintenance medium supplemented with 10% dextrancoated charcoal stripped fetal bovine serum (DCC-FBS) assay medium) in place of 10% FBS to deplete internal stores of steroids. MCF-7 cells were removed from maintenance flasks using cell dissociation medium (Ca++/Mg++ free HBSS (phenol red-free) supplemented with 10 mM HEPES and 2 mM EDTA). Cells were washed twice with assay medium and adjusted to 80,000 cells/mi. Approximately […] (8,000 cells) were added to flat-bottom microculture wells (Costar 3596) and incubated at 37° C. in a 5% CO2 humidified incubator for 48 hours to allow for cell adherence and equilibration after transfer. Serial dilutions of drugs or DMSO as a diluent control were prepared in assay medium and […] to triplicate microcultures followed by 50 ml assay medium for a final volume of […]. After an additional 48 hours at 37° C. in a 5% CO2 humidified incubator, microcultures were pulsed with tritiated thymidine (1 uCi/well) for 4 hours. Cultures were terminated by freezing at -70° C. for 24 hours followed by thawing and harvesting of microcultures. Samples were counted by liquid scintillation. Results in Table 3 below show the ED50 for certain compounds of the present invention.

serum cholesterol = assay: Serum cholesterol in ovariectomized rats (post-menopausal rat model, four day dosing); assay type: in vivo, female Sprague Dawley rats; conditions: oral, daily for 4 days, decrease vs OVX control
Experimental: as §1, §2
Blood samples were allowed to clot at room temperature for 2 hours, and serum was obtained following centrifugation for 10 minutes at 3000 rpm. Serum cholesterol was determined using a Boshringer Mannheim Diagnostics high performance cholesterol assay. Briefly the cholesterol was oxidized to cholest-4-en-3-one and hydrogen peroxide. The hydrogen peroxide was then reacted with phenol and 4-aminophenazone in the presence of peroxidase to produce a p-quinone imine dye, which was read spectrophotemetrically at 500 nm. Cholesterol concentration was then calculated against a standard curve. The entire assay was automated using a Biomek Automated Workstation.
as §4, §3

Row | Structure (SMILES) | Uterine EPO (Vmax) (eosinophil peroxidase; 0.1 mg/kg) | Uterine EPO (Vmax) (eosinophil peroxidase; 1 mg/kg) | Uterine EPO (Vmax) (eosinophil peroxidase; 10 mg/kg) | change in vivo at 0.1 mg/kg (uterus) [%] | change in vivo at 1 mg/kg (uterus) [%] | change in vivo at 10 mg/kg (uterus) [%] | IC50 [1] [nM] | Uterine EPO (Vmax) (eosinophil peroxidase; 0.01 mg/kg) | Serum Cholesterol (% dec. OVX) (serum cholesterol; 1 mg/kg) | Serum Cholesterol (% dec. OVX) (serum cholesterol; 10 mg/kg) [%] | change in vivo at 0.01 mg/kg (uterus; 0.01 mg/kg) [%]
1 | O=C(c1ccc(OCCN2CCCCC2=O)cc1)c1c(-c2ccc(O)cc2)sc2cc(O)ccc12 [Compound 3] | 8.0 | 7.8 | 8.9 | 13.3 | 17.8 | 57.6 | 600 |  |  |  | 
2 | O=C(c1ccc(OCCN2CCCC2=O)cc1)c1c(-c2ccc(O)cc2)sc2cc(O)ccc12 [Compound 6] | 3.6 | 1.4 | 3.7 | -9 | 15.4 | 40.3 |  |  |  |  | 
3 | COc1ccc(-c2sc3cc(OC)ccc3c2C(=O)c2ccc(OCC(=O)N3CCCCC3)cc2)cc1 [Compound 7] | 5.2 | 3.7 | 4.7 | -0.5 | -16.2 | 8.4 | > 1000 |  |  |  | 
4 | O=C(c1ccc(OCC(=O)N2CCCC2)cc1)c1c(-c2ccc(O)cc2)sc2cc(O)ccc12 [Compound 8] |  |  |  |  |  |  | 10 | 3.5 | 69.6% and 39.4% | 64.5 | -22.9
5 | O=C(c1ccc(OCC(=O)N2CCCCC2)cc1)c1c(-c2ccc(O)cc2)sc2cc(O)ccc12 [Compound 9] | 2.8 | 3.6 | 32 | -10 | 6.5 | 51.7 | 10 |  |  |  | 
6 | CCCCN(C)C(=O)COc1ccc(C(=O)c2c(-c3ccc(O)cc3)sc3cc(O)ccc23)cc1 [Compound 10] | 4.3 | 3.1 | 17.0 | 1.5 | -6.7 | 38 | 50 |  |  |  | 
7 | CN(C)C(=O)COc1ccc(C(=O)c2c(-c3ccc(O)cc3)sc3cc(O)ccc23)cc1 [Compound 12] | 3.7 | 6.7 | 122.3 | -7.7 | 15.4 | 60.7 |  |  |  |  | 
8 | O=C(c1ccc(OCCN2C(=O)CCC2=O)cc1)c1c(-c2ccc(O)cc2)sc2cc(O)ccc12 [Compound 13] | 1.9 | 1.7 | 2.5 | 22.2 | 7.2 | -4 | > 1000 |  |  |  | 
9 | N#CCOc1ccc(C(=O)c2c(-c3ccc(O)cc3)sc3cc(O)ccc23)cc1 [Compound 14] | 3.3 | 2.4 | 145.8 | 18.8 | 14.6 | 125 | 0.05 |  |  |  | 
10 | CC(C#N)Oc1ccc(C(=O)c2c(-c3ccc(O)cc3)sc3cc(O)ccc23)cc1 (stereo not drawn) [Compound 16] | 2.3 | 3.9 |  | 0.7 | 27.4 | 99.2 | 0.02 |  |  |  | 
11 | O=C(NCCOc1ccc(C(=O)c2c(-c3ccc(O)cc3)sc3cc(O)ccc23)cc1)c1ccccc1 [Compound 18] | 3.2 | 3.6 | 3.6 | 16.1 | 25.7 | 12.6 | 500 |  |  |  | 
12 | CC(=O)N(CCOc1ccc(C(=O)c2c(-c3ccc(O)cc3)sc3cc(O)ccc23)cc1)C1CCCCC1 [Compound 19] | 5.4 | 3.7 | 29.3 | 7 | -25.5 | 47 | 0.1 |  |  |  | 
13 | O=C(NCCOc1ccc(C(=O)c2c(-c3ccc(O)cc3)sc3cc(O)ccc23)cc1)NC1CCCCC1 [Compound 20] | 3.0 | 2.5 | 2.9 | -29.9 | -27.4 | -32.7 | 0.1 |  |  |  | 
14 | O=C(c1ccc(OCCNC(=O)C2CCCCC2)cc1)c1c(-c2ccc(O)cc2)sc2cc(O)ccc12 [Compound 21] | 3.1 | 2.6 | 2.4 | -5.5 | -11.5 | 8.6 |  |  |  |  | 
15 | CC(C)(C)C(=O)N1CCCCC1COc1ccc(C(=O)c2c(-c3ccc(O)cc3)sc3cc(O)ccc23)cc1 (stereo not drawn) [Compound 22] | 3.5 | 20.0 | 69.5 | 1.9 | 19.6 | 46.9 | 0.01 |  |  |  | 
16 | CC(C)(C)C(=O)N1CCC(Oc2ccc(C(=O)c3c(-c4ccc(O)cc4)sc4cc(O)ccc34)cc2)CC1 [Compound 23] | 1.6 | 3.8 | 6.7 | -4.3 | 0.8 | 22.3 | 4 |  |  |  | 
17 | CC(=O)NCCOc1ccc(C(=O)c2c(-c3ccc(O)cc3)sc3cc(O)ccc23)cc1 [Compound 26] | 1.3 | 0.7 |  | -17.5 | -28.8 | 25.8 |  |  |  |  | 
